Laboratory results taken from patent publication US12116424B2, “Compounds and compositions for modulating Listeria virulence” (priority 2021, dated 2024).
Where two headings read alike, the source gives them in different places. Where a SMILES comes first, the peptide text is derived from it. Bridges are numbered along the chain shown (N, C = ends). [ ]: non-standard residue; d: D form.

Experiments:
L. monocytogenes AgrC [1] = target: T1, L. monocytogenes AgrC (Listeria monocytogenes serovar 1/2a, UniProt Q8YAR5); assay: Fluorescence (agr-GFP) reporter agonism assay, ΔagrD reporter strain; format: cell-based; set-up: Emax: dose or concentration left out as unconfirmed
How it was run: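 L. monocytogenes EGD-e strains carrying agr promoter-GFP plasmid: ΔagrD for agonism (normalized to 1 μM AIP), wild type for antagonism (normalized to DMSO). Peptides in 1% DMSO with diluted overnight culture in BHI, 24 h at 37 °C shaking; GFP fluorescence corrected for background and OD600, four-parameter dose-response fit.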

L. monocytogenes AgrC [2] = target: T1, L. monocytogenes AgrC; assay: Fluorescence (agr-GFP) reporter antagonism assay, wild-type EGD-e reporter strain; format: cell-based
Source text: Construction of Listeria agr Reporter Strains. A gene block was designed and purchased from Integrated DNA Technologies to contain an EagI recognition site, the PII promoter of the agr system, the 3′ UTR of hly, super folder GFP, and a SaII recognition site. The gene block was digested with EagI and SaII, cloned into an EagI/SaII-cut pAM401 plasmid resulting in the plasmid pAM401-KW1, and then transformed into E. coli XL1-Blue competent cells. The insertion into pAM401 was confirmed using Kapa polymerase and primers DAP337 and DAP338, and additional confirmation via commercial sequencing. Purified plasmid was transformed into the conjugative E. coli S17 strain, which was used to conjugate to EGD-e and EGD-e ΔagrD to generate the agr-GFP reporter strains EGD-e:pAM401-KW1 and EGD-e ΔagrD:pAM401-KW1. Conjugation was verified using primers DAP337 and DAP338.
Fluorescence reporter assay protocol. For QS (agr) reporter assays, peptide stock solutions in DMSO (1 mM) were serially diluted in DMSO, and 2 μL of solution was added to each well in a black 96-well plate (polystyrene microtiter plate, Costar). Agonism assays utilized the ΔagrD reporter strain, with 2 μL of 100 μM AIP (final concentration 1 μM) as a positive control and 2 μL of DMSO as a negative control. Antagonism assays utilized the EGD-e reporter strain, with 2 μL of DMSO as a positive control. In both assays, wells containing only BHI media served as negative controls for normalization. An overnight culture of bacteria was diluted 1:50 in fresh BHI, then 198 μL were transferred to each well (excluding the media control wells). Plates were then incubated at 37° C. for 24 hours with shaking at 200 rpm. Fluorescence of GFP (excitation at 500 nm, emission at 540 nm) and OD600 of each well was measured using BioTek Synergy 2 plate reader. Measurements were processed by subtracting background fluorescence (BHI media), correcting by OD600, and the normalizing using the 1 μM AIP or the DMSO control for the agonism and antagonism assays, respectively. Non-linear regression curves were fitted to the data sets in GraphPad Prism 7 by using variable slope (four-parameter) dose-response analysis to obtain potency, efficacy, and statistical information about the activity of tested peptides. Each peptide was tested with three technical replicates and three biological replicates. All data derived from fluorescent reporter strains are represented with data points signifying the mean and error bars signifying the standard deviation from all replicates.
Preparation and Validation of Listeria agr Reporter Strains. […] However, adding exogenous AIP to the ΔagrD reporter results in an increase of fluorescence, indicating agr activity has been restored.

L. monocytogenes EGD-e = format: cell-based, Listeria monocytogenes
Experimental: Biofilm assay protocol. Biofilms assays were adapted from previous reports and protocols.^51-52 Overnight cultures of L. monocytogenes EGD-e and ΔagrD were grown in BHI, then diluted 1:100 in LB. For single-point assays, 2 μL of agonists or antagonists at an appropriate concentration were added to wells in a clear 96-well microtiter plates. For dose-response assays, a stock solution of the select peptide were serially diluted in DMSO, then 2 μL of each concentration were transferred to the appropriate wells. Then, 198 μL of bacteria were added to their respective wells, using ΔagrD for agonist wells and EGD-e for antagonist wells. In each plate, additional vehicle controls for baseline biofilm formation of EGD-e and ΔagrD strains (2 μL of DMSO) were included, as well as a media control (200 μL of LB). Plates were incubated at room temperature for 24 hours statically, at which point plates were inverted over a glass waste container and gently shook to remove planktonic bacteria. The wells were gently washed with 200 μL of PBS twice, inverting again over the waste container to remove liquid. Then, 200 μL of 0.1% crystal violet solution (in water) were added to each well and incubated for 30 minutes. The wells were then washed with 200 μL of PBS three more times and left to air dry for 15 minutes. Remaining crystal violet was solubilized by the addition of 100 μL of 95% ethanol in water solution, pipetting up and down to mix, incubated for 10 minutes, then absorbance was read at 595 nm. Absorbance data was processed by normalizing to the EGD-e vehicle control (100%) and the LB media control (0%). Non-linear regression curves were fitted to the data sets in GraphPad Prism 7 by using variable slope (four-parameter) dose-response analysis to obtain potency, efficacy, and statistical information about the activity of tested peptides. Each well was tested with four technical replicates and three biological replicates. […]

[3] = tested on: L. monocytogenes EGD-e ΔagrD; assay: Crystal violet biofilm assay, ΔagrD strain (agonists); format: cell-based, Listeria monocytogenes
Experimental: Biofilm assay protocol. Biofilms assays were adapted from previous reports and protocols.^51-52 Overnight cultures of L. monocytogenes EGD-e and ΔagrD were grown in BHI, then diluted 1:100 in LB. For single-point assays, 2 μL of agonists or antagonists at an appropriate concentration were added to wells in a clear 96-well microtiter plates. For dose-response assays, a stock solution of the select peptide were serially diluted in DMSO, then 2 μL of each concentration were transferred to the appropriate wells. Then, 198 μL of bacteria were added to their respective wells, using ΔagrD for agonist wells and EGD-e for antagonist wells. In each plate, additional vehicle controls for baseline biofilm formation of EGD-e and ΔagrD strains (2 μL of DMSO) were included, as well as a media control (200 μL of LB). Plates were incubated at room temperature for 24 hours statically, at which point plates were inverted over a glass waste container and gently shook to remove planktonic bacteria. The wells were gently washed with 200 μL of PBS twice, inverting again over the waste container to remove liquid. Then, 200 μL of 0.1% crystal violet solution (in water) were added to each well and incubated for 30 minutes. The wells were then washed with 200 μL of PBS three more times and left to air dry for 15 minutes. Remaining crystal violet was solubilized by the addition of 100 μL of 95% ethanol in water solution, pipetting up and down to mix, incubated for 10 minutes, then absorbance was read at 595 nm. Absorbance data was processed by normalizing to the EGD-e vehicle control (100%) and the LB media control (0%). Non-linear regression curves were fitted to the data sets in GraphPad Prism 7 by using variable slope (four-parameter) dose-response analysis to obtain potency, efficacy, and statistical information about the activity of tested peptides. Each well was tested with four technical replicates and three biological replicates. All data derived from crystal violet biofilm assays are represented with data points signifying the mean and error bars signifying the standard deviation from all replicates.

[4] = read-out: Max Activation Observed

T1 sequence (Q8YAR5 entry or part of it): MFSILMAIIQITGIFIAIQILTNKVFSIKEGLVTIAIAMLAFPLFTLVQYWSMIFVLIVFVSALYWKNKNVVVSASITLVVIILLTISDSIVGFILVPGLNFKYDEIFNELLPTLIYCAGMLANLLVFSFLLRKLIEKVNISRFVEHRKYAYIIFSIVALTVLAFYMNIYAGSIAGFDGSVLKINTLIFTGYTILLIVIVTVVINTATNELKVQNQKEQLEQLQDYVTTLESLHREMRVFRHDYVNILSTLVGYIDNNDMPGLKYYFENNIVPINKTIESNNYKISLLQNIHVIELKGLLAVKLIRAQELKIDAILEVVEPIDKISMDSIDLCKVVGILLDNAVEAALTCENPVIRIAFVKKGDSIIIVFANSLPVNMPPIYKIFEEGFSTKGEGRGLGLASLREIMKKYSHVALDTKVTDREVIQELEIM

| Structure (SMILES) | Emax (L. monocytogenes AgrC [1]; [4]) [%] | antagonism activity (in words) (L. monocytogenes AgrC [2]) | biofilm of wild-type (WT) strain (FIG. 9B) (L. monocytogenes EGD-e) | wild-type biofilm formation reduced by (L. monocytogenes EGD-e; 100 μM) [%] | IC50 (L. monocytogenes EGD-e; dose-response, wild-type biofilm, read-out: IC50 (biofilm formation)) [nM] | Emax (L. monocytogenes AgrC [1]; read-out: Max Activation) [%] | Emax at 1 µM (L. monocytogenes AgrC [1]; read-out: Max Activation) [%] | biofilm formation of ΔagrD strain (FIG. 9A) [3] | biofilm production compared to vehicle controls ([3]; 10 μM, ΔagrD bacteria) |
| --- | --- | --- | --- | --- | --- | --- | --- | --- | --- |
| CSCC[C@H]1NC(=O)[C@H](Cc2ccccc2)NC(=O)[C@H](NC(=O)[C@@H](N)CCCCN)CSC(=O)[C@H](C(C)C)NC(=O)[C@H](Cc2ccccc2)NC1=O [A1K/C2dC/M4dM, K-(dC-F-dM-F-V)] (H-K[dC]F[dM]FV; thioester 2-C) | 8.1 | inhibiting wild-type activity to levels similar to basal ΔagrD activity | reduces biofilm | 90 | 1860 |  |  |  |  |
| CSCC[C@@H]1NC(=O)[C@H](Cc2ccccc2)NC(=O)[C@@H](NC(=O)[C@H](C)N)CSC(=O)[C@H](C(C)C)NC(=O)[C@H](Cc2ccccc2)NC1=O [AIP, A-(C-F-M-F-V), reference compound] (H-ACFMFV; thioester 2-C; N-terminus assumed) | 114 |  |  |  |  | 114 | 114 | increase biofilm formation | doubled |
